Counter-ions that a name gives are not always drawn.
The compounds below were run against T1, human NCX1 (Homo sapiens, UniProt P32418) (assay: NCX1 inhibition, reverse mode (Ca2+ influx into cells), FLIPR Fluo-4 assay). Settings: inhibition of NCX1 in reverse mode (Ca2+ influx into cells); read-out: NCX1rv IC50.
T1 construct: expressed in transfected cells
Type: cell-based
From the text: The sodium/calcium exchanger NCX1 can transport calcium ions and sodium ions through the cell membrane. The transport is an exchange of Ca^2+ and Na^+ in two directions depending on membrane potential and ion gradients. At the first direction, named “forward mode” or “calcium export mode”, Ca^2+ is transported out of the cell and Na^+ is transported into the cell. At the other direction, named “reverse mode” or “calcium import mode”, the transport directions are vice versa. The effect of the compounds of the invention on NCX1 was determined in CHO cells stably expressing human NCX1 (gene symbol SLC8A1; cf. WO 2009/115238). The assay is based on the monitoring of intracellular Ca^2+ concentrations using a calcium-sensitive fluorescence dye which is detected by means of a FLIPR device (Fluorimetric Imaging Plate Reader, Molecular Devices).
The assay is based on the monitoring of intracellular Ca^2+ concentrations using the calcium-sensitive dye Fluo-4. CHO cells expressing NCX1 were loaded with the dye by means of the acetoxymethyl ester Fluo-4 AM (Invitrogen, F14202), which is cleaved intracellularly by esterase activity to yield the charged species of free Fluo-4. After an preincubation period with the test compound, Gramicidine (Sigma, G5002) was added. Gramicidine is an ionophor for Na^+ ions mediating an increase of intracellular Na^+ ions. Consequently, intracellular Na^+ ions are exchanged against extracellular Ca^2+ ions (Ca^2+ influx, reverse mode). The intracellular elevation of Ca^2+ ions was detected by measuring the fluorescence of Fluo-4 at a wavelength of 520 nm by a FLIPR device.
Briefly, for the reverse mode transport assay 18000 cells per well were seeded into a 96 well microplate (Corning COSTAR 3904) and incubated overnight in culture medium (1× Nut Mix F12 (Ham) (Gibco, 21765-029); 10% (v/v) fetal calf serum (PAA Gold, A15-649); 450 μg/ml Geneticin (Gibco, 10131-027)). A total volume of 100 μl medium per well was used. For the preparation of the FLIPR assay, the culture medium was removed from the plates and 100 μl of dye solution (2 μM Fluo-4 AM; 0.02% (v/v) Pluronic F-127 (20%, Invitrogen, P3000MP); 0.1% (v/v) bovine albumin solution (30% (v/v), Sigma, A9205) in assay buffer (133.8 mM NaCl (Sigma, S5886); 4.7 mM KCl (Sigma, P3911); 1.25 mM MgCl2 (Merck, 1.05833.0250); 3.5 mM CaCl2 (Merck, 1.02083.0250); 5 mM glucose (Sigma, G7021); 10 mM Hepes (Sigma, H4034); 0.01% (v/v) Pluronic F-127 (5%, Sigma, P2443); 2.5 mM Probenecid (Maybridge, SB00915EB); pH 7.4)) were added into each well. The plates were incubated in the dark at room temperature for 80 min. After the incubation period, the dye solution was removed and the wells were washed with 100 μl of assay buffer. Then 80 μl of a solution of the test compound in assay buffer in different concentrations were added into the wells. The plates were incubated at 16° C. for 45 min. Meanwhile a 60 μM solution of Gramicidine in assay buffer (4° C.) was prepared and stored in the wells of a 96 well microplate (96 well microplate, polypropylene, U-shape (Greiner Bio-One, 650201)) at 4° C. until measurement was started. The fluorescence monitoring was performed at 240 measuring points with measurement intervals of 2 sec. After the fifth measuring point, 40 μl of the Gramicidine solution were added to each well of the assay plates to give a final Gramicidine concentration of 20 μM. For the determination of the IC50 values the minimal fluorescence value was subtracted from the maximal fluorescence value for all measuring points. The calculation of the IC50 values via the percentage inhibitions of Ca^2+ influx into cells (reverse mode) effected by the test compound was performed in Biost@t Speed 2.0.

First: O=C(NCc1ccncc1)c1cnc(Oc2ccc3c(c2)CCC(c2ccsc2)O3)s1 (centres unmarked) [compound 60, hydrochloride]
Second: O=C(NCCc1ccncc1)c1cnc(Oc2ccc3c(c2)CCC(c2ccccc2)O3)s1 (centres unmarked) [compound 61, hydrochloride]
The IC50 of the first is 2-fold lower: 100 nM for the first, 200 nM for the second.

Going from `Cc1c(CNC(=O)c2cnc(Oc3ccc4c(c3)CC[C@@H](c3ccccc3)O4)s2)cnn1C` [compound 62] to `Cc1c(CNC(=O)c2cnc(Oc3ccc4c(c3)CC[C@H](c3ccccc3)O4)s2)cnn1C` [compound 63], the IC50 rises from 300 nM to 600 nM (2-fold). The first is the more potent here.

Compared with `Cc1ccc(C(=O)NCc2cnc(Oc3ccc4c(c3)CCC(c3ccccc3)O4)s2)cn1` (centres unmarked) [compound 64], `Cc1cc(C(=O)NCc2cnc(Oc3ccc4c(c3)CCC(c3ccccc3)O4)s2)ccn1` (centres unmarked) [compound 82] is 3.2-fold lower in IC50: 1300 nM for the first, 400 nM for the second. The second is the more potent here.

Going from `Cc1noc(C)c1C(=O)NCc1cnc(Oc2ccc3c(c2)CCC(c2ccccc2)O3)s1` (centres unmarked) [compound 65] to `Cc1noc(C)c1CC(=O)NCc1cnc(Oc2ccc3c(c2)CCC(c2ccccc2)O3)s1` (centres unmarked) [compound 77], the IC50 rises from 200 nM to 400 nM (2-fold).

Going from `Cc1cc(C(=O)NCc2cnc(Oc3ccc4c(c3)CCC(c3ccccc3)O4)s2)n(C)n1` (centres unmarked) [compound 66] to `Cc1nn(C)c(C)c1C(=O)NCc1cnc(Oc2ccc3c(c2)CCC(c2ccccc2)O3)s1` (centres unmarked) [compound 67], the IC50 falls from 600 nM to 300 nM (2-fold).

Going from `O=C(NCc1cnc(Oc2ccc3c(c2)CCC(c2ccccc2)O3)s1)c1ccnc(Cl)c1` (centres unmarked) [compound 68] to `Nc1cc(C(=O)NCc2cnc(Oc3ccc4c(c3)CCC(c3ccccc3)O4)s2)ccn1` (centres unmarked) [compound 85], the IC50 rises from 800 nM to 10900 nM (14-fold).

Compared with `Cc1ncoc1C(=O)NCc1cnc(Oc2ccc3c(c2)CCC(c2ccccc2)O3)s1` (centres unmarked) [compound 69], `Cc1nc(C)c(C(=O)NCc2cnc(Oc3ccc4c(c3)CCC(c3ccccc3)O4)s2)o1` (centres unmarked) [compound 78] is 1.7-fold lower in IC50: 500 nM for the first, 300 nM for the second. The second is the more potent here.

`CCn1nccc1C(=O)NCc1cnc(Oc2ccc3c(c2)CCC(c2ccccc2)O3)s1` (centres unmarked) [compound 70] and `Cn1nccc1C(=O)NCc1cnc(Oc2ccc3c(c2)CCC(c2ccccc2)O3)s1` (centres unmarked) [compound 86] are the same in IC50: 300 nM for the first, 300 nM for the second.

First: Cc1c(C(=O)NCc2cnc(Oc3ccc4c(c3)CCC(c3ccccc3)O4)s2)cnn1C (centres unmarked) [compound 71]
Second: Cc1nc(C(=O)NCc2cnc(Oc3ccc4c(c3)CCC(c3ccccc3)O4)s2)cs1 (centres unmarked) [compound 73]
The IC50 of the first is 2.3-fold higher: 700 nM for the first, 300 nM for the second.

Going from `CCn1cc(C(=O)NCc2cnc(Oc3ccc4c(c3)CCC(c3ccccc3)O4)s2)cn1` (centres unmarked) [compound 72] to `O=C(NCc1cnc(Oc2ccc3c(c2)CCC(c2ccccc2)O3)s1)c1ccncc1` (centres unmarked) [compound 79], the IC50 falls from 300 nM to 200 nM (1.5-fold). The second is the more potent here.

Going from `Cc1ccn(CC(=O)NCc2cnc(Oc3ccc4c(c3)CCC(c3ccccc3)O4)s2)n1` (centres unmarked) [compound 74] to `O=C(CCn1cccn1)NCc1cnc(Oc2ccc3c(c2)CCC(c2ccccc2)O3)s1` (centres unmarked) [compound 90], the IC50 rises from 300 nM to 600 nM (2-fold). The first is the more potent here.

Going from `O=C(NCc1cnc(Oc2ccc3c(c2)CCC(c2ccccc2)O3)s1)c1ccnc(N2CCCCC2)c1` (centres unmarked) [compound 75] to `O=C(NCc1cnc(Oc2ccc3c(c2)CCC(c2ccccc2)O3)s1)c1ccnc(N2CCOCC2)c1` (centres unmarked) [compound 83], the IC50 falls from 9800 nM to 2100 nM (4.7-fold). The second is the more potent here.

`COc1cc(C(=O)NCc2cnc(Oc3ccc4c(c3)CCC(c3ccccc3)O4)s2)ccn1` (centres unmarked) [compound 76] and `O=C(NCc1cnc(Oc2ccc3c(c2)CCC(c2ccccc2)O3)s1)c1ccnc(O)c1` (centres unmarked) [compound 88] are within 1.5-fold of each other in IC50: 5600 nM for the first, 5000 nM for the second.

Compared with `O=C(NCc1cnc(Oc2ccc3c(c2)CCC(c2ccccc2)O3)s1)c1ccncc1Cl` (centres unmarked) [compound 80], `O=C(NCc1cnc(Oc2ccc3c(c2)CCC(c2ccccc2)O3)s1)c1ccncc1F` (centres unmarked) [compound 81] is 5.5-fold higher in IC50: 200 nM for the first, 1100 nM for the second.

First: Cc1cc(C(=O)NCc2cnc(Oc3ccc4c(c3)CCC(c3ccccc3)O4)s2)on1 (centres unmarked) [compound 84]
Second: Cc1cc(C(=O)NCc2cnc(Oc3ccc4c(c3)CCC(c3ccccc3)O4)s2)nc(C)n1 (centres unmarked) [compound 91]
The IC50 of the first is 18-fold lower: 300 nM for the first, 5300 nM for the second.

Going from `O=C(NCc1cnc(Oc2ccc3c(c2)CCC(c2ccccc2)O3)s1)c1ncccn1` (centres unmarked) [compound 87] to `O=C(NCc1cnc(Oc2ccc3c(c2)CCC(c2ccccc2)O3)s1)c1ccncn1` (centres unmarked) [compound 89], the IC50 falls from 400 nM to 200 nM (2-fold). The second is the more potent here.

Reference: patent publication US20140243292A1, “SUBSITUTED 2-(CHROMAN-6-YLOXYL)-THIAZOLES AND THEIR USE AS PHARMACEUTICALS” (Sanofi, priority 2011, published 2014)
